According to patent publication US11773078B2, “Furin inhibitors” (Glaxosmithkline Intellectual Property Development Limited, priority 2018, dated 2023):
Structures can show the parent of a compound that is named as a salt.

Columns and labels:
[1] = target: T1, furin (endogenous protease) in U20S cells (Homo sapiens, UniProt P09958); assay: Furin cell-based assay (image-based, Golgi-targeted GFP with BMP10 furin/PCSK cleavage site); details: 24-hour incubation, read-out: furin golgi cell pXC50 (converted);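 note: Read-out is mean GFP fluorescence of Golgi puncta per cell by high-content imaging, retained when furin inhibited, over an eleven-point 0.00017–10 µM series, four-parameter fit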
T1 construct: the endogenous protease cleaves GFP; endogenous in cells; host or cells: U2OS cells transduced with a BacMam reporter
T1 sequence (P09958 108-794): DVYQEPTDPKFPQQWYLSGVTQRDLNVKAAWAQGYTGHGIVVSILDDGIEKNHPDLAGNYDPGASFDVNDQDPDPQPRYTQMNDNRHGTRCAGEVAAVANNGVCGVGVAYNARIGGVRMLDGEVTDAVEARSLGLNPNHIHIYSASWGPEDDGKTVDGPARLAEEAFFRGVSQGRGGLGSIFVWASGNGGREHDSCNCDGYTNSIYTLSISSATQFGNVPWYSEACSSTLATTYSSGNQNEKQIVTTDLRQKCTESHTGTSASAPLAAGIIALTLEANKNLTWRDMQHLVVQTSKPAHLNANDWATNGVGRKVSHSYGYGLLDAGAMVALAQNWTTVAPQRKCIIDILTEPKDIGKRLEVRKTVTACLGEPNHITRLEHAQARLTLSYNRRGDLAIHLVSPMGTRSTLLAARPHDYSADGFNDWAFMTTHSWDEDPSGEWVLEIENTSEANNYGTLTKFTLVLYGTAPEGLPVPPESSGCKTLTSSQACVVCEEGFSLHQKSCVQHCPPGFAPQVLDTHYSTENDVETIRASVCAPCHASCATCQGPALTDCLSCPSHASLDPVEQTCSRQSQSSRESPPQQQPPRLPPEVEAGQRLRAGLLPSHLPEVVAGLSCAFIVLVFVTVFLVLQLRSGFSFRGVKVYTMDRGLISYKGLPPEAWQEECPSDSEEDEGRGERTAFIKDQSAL

[2] = target: T2, Furin (108-574-Tev-Flag-His) enzyme (Homo sapiens, UniProt P09958); assay: Furin enzyme assay; assay type: biochemical; details: for IC50: read-out: furin enzyme pIC50 (converted)
T2 construct: Furin (108-574-Tev-Flag-His) enzyme was expressed and purified from CHO cells; TEV cleavage site (C); FLAG (C); His (C); made in house; host or cells: CHO cells
T2 sequence (P09958 108-574): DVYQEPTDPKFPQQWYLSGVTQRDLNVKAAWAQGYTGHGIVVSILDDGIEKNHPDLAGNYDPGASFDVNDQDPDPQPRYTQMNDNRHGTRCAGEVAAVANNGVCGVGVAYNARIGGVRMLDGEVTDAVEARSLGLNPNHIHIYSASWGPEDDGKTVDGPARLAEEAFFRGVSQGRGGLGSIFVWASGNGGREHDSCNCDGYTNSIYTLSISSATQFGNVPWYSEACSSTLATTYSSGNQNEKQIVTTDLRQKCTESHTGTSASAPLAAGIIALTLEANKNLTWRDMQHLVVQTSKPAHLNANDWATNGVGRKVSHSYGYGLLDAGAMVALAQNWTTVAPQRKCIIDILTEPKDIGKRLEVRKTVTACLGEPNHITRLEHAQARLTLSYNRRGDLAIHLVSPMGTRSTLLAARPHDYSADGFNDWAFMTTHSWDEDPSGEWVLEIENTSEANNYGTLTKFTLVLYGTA
Procedure, shortened: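 CHO-expressed, purified furin construct at 40 pM in 100 mM HEPES pH7.5, 1 mM CaCl2, 0.005% Triton X-100. Eleven-point 1:3 series, 0.00017–10 μM final, incubated 2 h at room temperature and read on Envision. pXC50 from four-parameter fit.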

Structure (SMILES) | EC50 [1] | furin enzyme pIC50 [2] | IC50 [2]
CC(C)(CO)CN1CCN(c2ncc(Oc3cc(CN4CCC(CC(=O)O)CC4)cc(-c4cc(Cl)cc(Cl)c4)n3)cn2)CC1 [Example 280, 2-(1-((2-(3,5-dichlorophenyl)-6-((2-(4-(3-hydroxy-2,2-dimethylpropyl)piperazin-1-yl)pyrimidin-5-yl)oxy)pyridin-4-yl)methyl)piperidin-4-yl)acetic acid] | 15.8 nM | 8.3 | 
O=S(=O)(O)CC1CCN(Cc2cc(Oc3ccc(N4CCNCC4)nc3)nc(-c3cc(Cl)cc(Cl)c3)c2)CC1 [Example 8, (1-((2-(3,5-Dichlorophenyl)-6-((6-(piperazin-1-yl)pyridin-3-yl)oxy)pyridin-4-yl)methyl)piperidin-4-yl)methanesulfonic acid, 4 hydrochloride] | 200 nM | 8.9 | 
NS(=O)(=O)CCC1CCN(Cc2cc(Oc3ccc(N4CCN(CCC(=O)O)CC4)nc3)nc(-c3cc(Cl)cc(Cl)c3)c2)CC1 [Example 277, 3-(4-(5-((6-(3,5-dichlorophenyl)-4-((4-(2-sulfamoylethyl)piperidin-1-yl)methyl)pyridin-2-yl)oxy)pyridin-2-yl)piperazin-1-yl)propanoic acid] | 50.1 nM |  | 0.0316 nM
CS(=O)(=O)NCC1CCN(Cc2cc(Oc3ccc(N4CCN(CCC(=O)O)CC4)nc3)nc(-c3cc(Cl)cc(Cl)c3)c2)CC1 [Example 44] | 25.1 nM | 9.5 | 
CN1CCCN(c2ccc(Oc3cc(CN4CCC(CC(=O)O)CC4)cc(-c4cc(Cl)cc(Cl)c4)n3)nn2)CC1 [Example 356, 2-(1-((2-(3,5-dichlorophenyl)-6-((6-(4-methyl-1,4-diazepan-1-yl)pyridazin-3-yl)oxy)pyridin-4-yl)methyl)piperidin-4-yl)acetic acid] | 31.6 nM | 8.6 | 
CNC(=O)OCC1CCN(Cc2cc(Oc3cnc(N4CCN(CCO)CC4)nc3)nc(-c3cc(Cl)cc(Cl)c3)c2)CC1 [Example 307, (1-((2-(3,5-dichlorophenyl)-6-((2-(4-(2-hydroxyethyl)piperazin-1-yl)pyrimidin-5-yl)oxy)pyridin-4-yl)methyl)piperidin-4-yl)methyl methylcarbamate] | 2 nM | 9.4 | 
C[C@@H](CC1CCN(Cc2cc(Oc3cnc(N4CCN(C)CC4)nc3)nc(-c3cc(Cl)cc(Cl)c3)c2)CC1)C(=O)O [Example 134] | 25.1 nM | 9.5 | 
COC(=O)CCN1CCN(c2ccc(Oc3cc(CN4CCC(CNC(C)=O)CC4)cc(-c4cc(Cl)cc(Cl)c4)n3)cn2)CC1 [Example 385, Methyl 3-(4-(5-((4-((4-(Acetamidomethyl)piperidin-1-yl)methyl)-6-(3,5-dichlorophenyl)pyridin-2-yl)oxy)pyridin-2-yl)piperazin-1-yl)propanoate] | 12.6 nM | 8.4 | 
CCN1C[C@@H]2C[C@H]1CN2c1ccc(Oc2cc(CN3CCC(CC(=O)O)CC3)cc(-c3cc(Cl)cc(Cl)c3)n2)nn1 [Example 366, 2-(1-((2-(3,5-dichlorophenyl)-6-((6-((1S,4S)-5-ethyl-2,5-diazabicyclo[2.2.1]heptan-2-yl)pyridazin-3-yl)oxy)pyridin-4-yl)methyl)piperidin-4-yl)acetic acid] | 31.6 nM | 8.8 | 
CC(=O)N[C@H]1[C@@H]2CCN(Cc3cc(Oc4cnc(N5CCN(CCC(=O)O)CC5)nc4)nc(-c4cc(Cl)cc(Cl)c4)c3)CC[C@@H]21 [Example 367] | 2.51 nM | 10.1 | 
NS(=O)(=O)CCCN1CCN(c2ncc(Oc3cc(CN4CCC(CC(=O)O)CC4)cc(-c4cc(Cl)cc(Cl)c4)n3)cn2)CC1 [Example 246, 2-(1-((2-(3,5-dichlorophenyl)-6-((2-(4-(3-sulfamoylpropyl)piperazin-1-yl)pyrimidin-5-yl)oxy)pyridin-4-yl)methyl)piperidin-4-yl)acetic acid] | 15.8 nM | 8.9 | 
CN1CCN(c2ncc(Oc3cc(CN4CCC(OC(C)(C)C(=O)O)CC4)cc(-c4cc(Cl)cc(Cl)c4)n3)cn2)CC1 [Example 225, 2-((1-((2-(3,5-dichlorophenyl)-6-((2-(4-methylpiperazin-1-yl)pyrimidin-5-yl)oxy)pyridin-4-yl)methyl)piperidin-4-yl)oxy)-2-methylpropanoic acid] | 10 nM | 8.5 | 
CC(=O)NCC1CCN(Cc2cc(Oc3cnc(N4CCN(CCC5(C(=O)O)CC5)CC4)nc3)nc(-c3cc(Cl)cc(Cl)c3)c2)CC1 [Example 173, 1-(2-(4-(5-((4-((4-(acetamidomethyl)piperidin-1-yl)methyl)-6-(3,5-dichlorophenyl)pyridin-2-yl)oxy)pyrimidin-2-yl)piperazin-1-yl)ethyl)cyclopropanecarboxylic acid] | 1.26 nM |  | 0.398 nM
CNC(=O)NCC1CCN(Cc2cc(Oc3cnc(N4CCN(C(C)CCO)CC4)nc3)nc(-c3cc(Cl)cc(Cl)c3)c2)CC1 (stereo not shown) [Example 20, 1-((1-((2-(3,5-dichlorophenyl)-6-((2-(4-(4-hydroxybutan-2-yl)piperazin-1-yl)pyrimidin-5-yl)oxy)pyridin-4-yl)methyl)piperidin-4-yl)methyl)-3-methylurea] | 1 nM | 9.6 | 
CC(=O)NCC1CCN(Cc2cc(Oc3ccc(N4CCN(CCC(=O)O)CC4)nc3)nc(-c3cc(F)cc(Br)c3)c2)CC1 [Example 116, 3-(4-(5-((4-((4-(Acetamidomethyl)piperidin-1-yl)methyl)-6-(3-bromo-5-fluorophenyl)pyridin-2-yl)oxy)pyridin-2-yl)piperazin-1-yl)propanoic acid] | 200 nM | 10.4 | 
O=C(O)CC1CCN(Cc2cc(Oc3cnc(N4CCN(C(CO)CO)CC4)nc3)nc(-c3cc(Cl)cc(Cl)c3)c2)CC1 [Example 23, 2-(1-((2-(3,5-dichlorophenyl)-6-((2-(4-(1,3-dihydroxypropan-2-yl)piperazin-1-yl)pyrimidin-5-yl)oxy)pyridin-4-yl)methyl)piperidin-4-yl)acetic acid] | 15.8 nM | 8.3 | 
CN1CCN(c2ncc(Oc3cc(CN4CCC(Cc5nnn[nH]5)CC4)cc(-c4cc(Cl)cc(Cl)c4)n3)cn2)CC1 [Example 72, 5-((4-((4-((1H-tetrazol-5-yl)methyl)piperidin-1-yl)methyl)-6-(3,5-dichlorophenyl)pyridin-2-yl)oxy)-2-(4-methylpiperazin-1-yl)pyrimidine] | 10 nM | 8.8 | 
CC(=O)NCC1CCN(Cc2cc(Oc3ccc(N4CCCN(CCC(=O)O)CC4)nc3)nc(-c3cc(Cl)cc(Cl)c3)c2)CC1 [Example 190, 3-(4-(5-((4-((4-(Acetamidomethyl)piperidin-1-yl)methyl)-6-(3,5-dichlorophenyl)pyridin-2-yl)oxy)pyridin-2-yl)-1,4-diazepan-1-yl)propanoic acid] | 158 nM | 10.7 | 
CP(C)(=O)CC1CCN(Cc2cc(Oc3cnc(N4CCNCC4)nc3)nc(-c3cc(Cl)cc(Cl)c3)c2)CC1 [Example 125] | 50.1 nM | 8 | 
CN1CCN(c2ccc(Oc3cc(CN4CCC(CC(=O)O)CC4)cc(-c4cc(Cl)cc(Cl)c4)n3)cc2)CC1 [Example 150, 2-(1-((2-(3,5-dichlorophenyl)-6-(4-(4-methylpiperazin-1-yl)phenoxy)pyridin-4-yl)methyl)piperidin-4-yl)acetic acid] | 63.1 nM | 8.2 | 
CN1CCN(c2cnc(Oc3cc(CN4CCC(CCO)CC4)cc(-c4cc(Cl)cc(Cl)c4)n3)cn2)CC1 [Example 350, 2-(1-((2-(3,5-dichlorophenyl)-6-((5-(4-methylpiperazin-1-yl)pyrazin-2-yl)oxy)pyridin-4-yl)methyl)piperidin-4-yl)ethanol] | 1.26 nM | 8.6 | 
CC(=O)NCC1CCN(Cc2cc(Oc3ccc(N4CCN(CC(C)C(=O)O)CC4)nn3)nc(-c3cc(Cl)cc(Cl)c3)c2)CC1 (stereo not shown) [Example 363, 3-(4-(6-((4-((4-(acetamidomethyl)piperidin-1-yl)methyl)-6-(3,5-dichlorophenyl)pyridin-2-yl)oxy)pyridazin-3-yl)piperazin-1-yl)-2-methylpropanoic acid] | 631 nM | 9.7 | 
CC(=O)CC1CCN(Cc2cc(Oc3cnc(N4CCN(C)CC4)nc3)nc(-c3cc(Cl)cc(Cl)c3)c2)CC1 [Example 155, 1-(1-((2-(3,5-dichlorophenyl)-6-((2-(4-methylpiperazin-1-yl)pyrimidin-5-yl)oxy)pyridin-4-yl)methyl)piperidin-4-yl)propan-2-one] | 15.8 nM | 8.1 | 
CC(=O)NCC1CCN(Cc2cc(-c3cc(Cl)cc(Cl)c3)nc(Oc3ccc(N4CCNCC4)nc3)n2)CC1 [Example 90, N-((1-((6-(3,5-Dichlorophenyl)-2-((6-(piperazin-1-yl)pyridin-3-yl)oxy)pyrimidin-4-yl)methyl)piperidin-4-yl)methyl)acetamide] | 7.94 nM | 8.5 | 
CC(C)N1CCN(c2cnc(Oc3cc(CN4CCC(CC(=O)O)CC4)cc(-c4cc(Cl)cc(Cl)c4)n3)cn2)CC1 [Example 347, 2-(1-((2-(3,5-dichlorophenyl)-6-((5-(4-isopropylpiperazin-1-yl)pyrazin-2-yl)oxy)pyridin-4-yl)methyl)piperidin-4-yl)acetic acid] | 15.8 nM | 8.5 | 
CNC(=O)NCC1CCN(Cc2cc(Oc3cnc(N4CCNCC4)nc3)nc(-c3cc(Cl)cc(Cl)c3)c2)CC1 [Example 75, 1-((1-((2-(3,5-Dichlorophenyl)-6-((2-(piperazin-1-yl)pyrimidin-5-yl)oxy)pyridin-4-yl)methyl)piperidin-4-yl)methyl)-3-methylurea, 4 hydrochloride] | 3.16 nM | 9.1 | 
